The values that follow come from ChEMBL document CHEMBL4017442, “Recent updates of carbapenem antibiotics” (Eur J Med Chem, 2017).

The subject of data set [1] is Staphylococcus aureus. As to the kind of experiment: Potentiation of imipenem-induced antibacterial activity against methicillin-reisitant Staphylococcus aureus assessed as fold reduction in imipenem MIC at 10 ug/ml measured after 20 hrs by liquid microdilution method relative to imipenem alone. The class given is functional. (Broth dilution looks for growth in wells or tubes with falling amounts of substance.)

In data set [2] the test system is Staphylococcus aureus. Kind of data set: Potentiation of imipenem-induced antibacterial activity against methicillin-reisitant Staphylococcus aureus assessed as imipenem MIC (reference value: 16 ug/ml). The class given is functional.
Data set [3] concerns Blood. As to the kind of experiment: Drug uptake in end-stage renal disease patient blood at 0.5 g, iv. Type of data set: ADME, tissue-based. Conditions: human.
Data set [4] in a line: Half life in iv dosed human. Conditions: in vivo. The class given is ADME, organism-based.
Data set [5] can be described thus: Clearance in end-stage renal disease patient undergoing drug hydrolysis. The class given is ADME. Conditions: human.
Data set [6] relates to Blood. As to the kind of experiment: Drug uptake in end-stage renal disease patient blood at 0.75 g, iv. The class given is ADME, tissue-based. Conditions: human.
Data set [7] in a line: Ratio of drug level in serum to cerebrospinal fluid in human. The class given is ADME.
The nature of data set [8]: Clearance in end-stage renal disease patient without drug hydrolysis. To be noted: human. Type of data set: ADME.
The subject of another data set is Mus musculus. Kind of data set: Anti-inflammatory activity in mouse model of CLP-induced sepsis assessed as survival time at 25 ug/g, sc in presence of atorvastatin (reference value: 20 +/- 1.66 hrs). The class given is functional.
Another data set has as its system Plasma. As to the kind of experiment: Protein binding in human plasma at < 50 ug/ml. Type of data set: ADME, cell-free.
Data set [9] is described as follows: Elimination half life in human at 1 g, iv administered as single dose. Type of data set: ADME, organism-based. To be noted: in vivo, read-out: beta t1/2 (converted).

For `C=C/C(C)=C/C[C@@H]1[C@@]2(C)CCC[C@](C)(CO)[C@@H]2C[C@H](O)[C@]1(O)CSC[C@H](NC(C)=O)C(=O)O`, the “fold change (FC)” value with Staphylococcus aureus [1] is reported as 123.
Usually MIC stands for the least concentration at which growth counts as inhibited. Consider `C=C/C(C)=C/C[C@@H]1[C@@]2(C)CCCC(C)(C)[C@@H]2C[C@H](O)[C@]1(O)CSC[C@H](NC(C)=O)C(=O)O`, for which the MIC in the data set on Staphylococcus aureus [2] came to 0.05 µg/mL.
Take `CC(=N)N1CC[C@H](SC2=C(C(=O)O)N3C(=O)[C@H]([C@@H](C)O)[C@H]3C2)C1` [PANIPENEM]: the values for the Drug uptake in the data set on Blood [3] and in the data set with Blood [6] were 37 mg/L and 61 mg/L, respectively. This compound also showed a half-life in data set [4] of 1.2 h. The clearance in data set [5] was 159 mL/min; in [8] it was 48.7 mL/min. Besides, in [7], the Ratio stood at 8.
The compound `C[C@@H](O)[C@H]1C(=O)N2C(C(=O)O)=C(SCCNC=N)C[C@H]12` [IMIPENEM ANHYDROUS] gave a half-life in data set [4] of 1 h. The Survival with Mus musculus turned out to be 56 h.
As to `C[C@@H](O)[C@H]1C(=O)N2C(C(=O)O)=C(S[C@@H]3CN[C@H](C(=O)Nc4cccc(C(=O)O)c4)C3)[C@H](C)[C@H]12` [ERTAPENEM], in the data set on Plasma, the PPB is 94%. Moreover, the half-life in data set [9] is 4 h.
For `C=C/C(C)=C/C[C@@H]1[C@@]2(C)CCCC(C)(C)[C@@H]2C[C@H](O)[C@]1(O)CSC[C@H](NC(C)=O)C(=O)OC`, the “fold change (FC)” value with Staphylococcus aureus [1] is given as 533.
Turning to `O=C(O)CCNC(=O)c1ccccc1` [BETAMIPRON], the Drug uptake is listed as 24 mg/L in the data set with Blood [3] and 39 mg/L with Blood [6].
